Test results: article PMC4793301, “From chlorite dismutase towards HemQ–the role of the proximal H-bonding network in haeme binding” (Bioscience Reports, 2016)

Key:
[1] = target: T1, NdCld (chlorite dismutase from 'Candidatus Nitrospira defluvii') (Nitrospira defluvii, UniProt B3U4H7); test: UV-vis titration, Soret band […] nm; assay type: binding; set-up: gene cld; TEV-cleavable N-terminal Strep-II tag, modified pET-21b(+), E. coli Tuner (DE3) with hemin added; haeme b pentamer
T1 sequence (B3U4H7 27-264): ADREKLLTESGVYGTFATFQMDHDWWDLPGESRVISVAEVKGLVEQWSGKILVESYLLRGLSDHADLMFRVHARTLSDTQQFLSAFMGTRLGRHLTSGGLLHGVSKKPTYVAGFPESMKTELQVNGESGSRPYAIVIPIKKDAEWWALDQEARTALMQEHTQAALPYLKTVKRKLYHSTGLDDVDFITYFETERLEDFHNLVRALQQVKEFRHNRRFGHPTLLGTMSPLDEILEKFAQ

[2] = target: T1, NdCld (chlorite dismutase from 'Candidatus Nitrospira defluvii'); test: DSC, absolute Tm with ligand; assay type: binding; set-up: gene cld; TEV-cleavable N-terminal Strep-II tag, modified pET-21b(+), E. coli Tuner (DE3) with hemin added; haeme b pentamer; settings: 50 mM MES pH 5.5
[3] = target: NdCld wild-type; test: Titration of SCN− and F− to NdCld wild-type, UV–vis, dissociation constant; assay type: binding, Candidatus Nitrospira defluvii; settings: pH 5.5, 25°C
Procedure: SCN^− and F^− were titrated to NdCld wild-type for the determination of the dissociation constant (KD). The UV–visible electronic absorption spectrum of wild-type NdCld is altered upon binding of SCN^− or F^− if the respective ligand acts as a sixth ligand to haeme b. Binding of F^− was monitored by the change in absorbance at 612 nm [charge transfer band (CT1)] and binding of SCN^− was followed at 411 nm (Soret band). The measurements were performed using a Zeiss Specord S10 DiodeArray spectrophotometer equipped using a quartz cuvette with a path length of 10 mm under constant stirring at 25°C. Samples of 2 μM concentration in 50 mM MES buffer, pH 5.5, were used. Final ligand concentrations were 120 mM (F^−) and 50 mM (SCN^−).

[4] = target: T1, NdCld (chlorite dismutase from 'Candidatus Nitrospira defluvii'); test: biochemical; set-up: gene cld
[5] = target: T1, NdCld (chlorite dismutase from 'Candidatus Nitrospira defluvii'); set-up: gene cld; settings: 200 mM fluoride, 175 μM chlorite, 50 nM enzyme, 50 mM MES pH 5.5, 30 °C
[6] = system: NdCld (chlorite dismutase), substrate chlorite; test: Chlorite degradation, O2 release with Clark-type electrode (steady state); assay type: biochemical, Candidatus Nitrospira defluvii; settings: 200 mM fluoride, 175 μM chlorite, pH 5.5
Procedure: Cld-mediated chlorite reduction and concomitant oxygen generation was monitored by measuring the release of O2 using a Clark-type electrode (Oxygraph Plus; Hansatech Instruments). The electrode was inserted into a stirred water bath maintained at 30°C. The electrode was equilibrated to 100% O2 saturation by flushing with O2, further 0% saturation was achieved by bubbling with N2 until a plateau was reached. Reactions were carried out in O2-free 50 mM MES buffer, pH 5.5. […] A high excess of ligands (200 mM F^−, 10 mM SCN^−) was present in the respective measurements. […] Molecular oxygen production rates (μM O2 s^−1) were obtained from the initial linear time traces (initial velocities, v0) for direct comparison.

[7] = target: LmHemQ; set-up: method as in PMID 25602700; settings: read-out: KD of haeme binding; cited from earlier work
[8] = target: SaHemQ; set-up: method as in PMID 23737523; settings: read-out: KD of haeme binding; cited from earlier work
[9] = target: BsHemQ; set-up: method as in PMID 20543190; settings: read-out: KD of haeme binding; cited from earlier work

N#CS [SCN^−, thiocyanate]
Kd [1]: 150 ± 40 µM | Tm ([2]; 10 mM thiocyanate, main peak): 94 °C | Kd ([3]; SCN− to wild-type protein): 150 ± 40 µM

F [F^−, fluoride]
Kd [4]: 5900 ± 400 µM | Tm ([2]; 200 mM fluoride): 102 °C | v0 remaining [5]: 53% | Kd ([3]; F− to wild-type protein): 5900 ± 400 µM | v0 of wild-type NdCld remaining relative to ligand free [6]: 53%

C=CC1=C(C)c2cc3[n-]c(cc4[n-]c(cc5nc(cc1n2)C(C)=C5C=C)c(C)c4CCC(=O)O)c(CCC(=O)O)c3C.[Fe+2] [haeme, haeme b]
Kd [7]: 7 to 16 µM | Kd [8]: 1 µM | Kd [9]: 30 to 40 µM
